Legend:
[1] = system: mouse model of stabilized unilateral tibial fracture; test: Static weight bearing (incapacitance meter) after tibial fracture; type: in vivo; settings: for ipsilateral weight bearing vs pre-fracture baseline: adenosine-loaded hydrogel at fracture site
Description: (§1) The aim of the experiments described herein was to examine the effectiveness of local delivery of adenosine in tibial bone injury to concurrently attenuate fracture/post-surgical pain while promoting healing. All animal work was performed in compliance with the National Institutes of Health (NIH) and institutional guidelines, and the fracture surgery and biomaterial implantation protocols approved by the Institutional Animal Care and Use Committee at Duke University (Protocol Registry Number A151-20-07) were followed. C57BL/6J mice were used to study fracture nociception and the effect of local delivery of adenosine to mitigate pain and promote bone regeneration. Lepr-cre; tdTomato reporter mice were used for tracing of LepR(+) lineage cells after fracture. To determine the effect of adenosine on pain and healing, fracture surgeries were performed and treated immediately with PEGDA-6ACA-PBA macroporous hydrogels loaded with adenosine as treatment group or without adenosine as control group (Zeng Y, et al. (2020) Adv Mater. 32:e1906022). Behavioral tests for pain and limb function were assessed by weight bearing and open field locomotion. A priori power analysis was used to estimate the sample size requiring a statistical power (1−β) of 80% at the significance level of α=5%. On the basis of the power calculation, the indicated number was 8 animals per group for fracture pain and 4 animals per group for fracture healing. Ten animals per group were used to study the effect of adenosine on fracture pain, and 5 animals per group were used to examine the effect of adenosine on fracture healing. The exclusion criteria for experiments were animals that died due to the surgical procedures or shift of the intramedullary pin identified after experimental endpoint post-mortem. No randomization was used and researchers were not blinded. Measurement of adenosine in the circulation was performed by using an adenosine assay. The in vitro functional activity of DRG neurons was assessed by calcium and membrane potential imaging and the expression of proteins were assessed by histology or immunofluorescence imaging, and gene expression by RT-qPCR. Fracture healing was analyzed by microCT and histology. The study design and timeline of animal procedures (pin placement, surgery, therapeutic intervention with and without adenosine, and behavioral tests) are illustrated in FIG. 10A (weight bearing) and FIG. 10A (open field locomotion).
(§2) In all experiments, 12-week-old to 16-week-old C57BL/6J male mice (Jackson Laboratory, Bar Harbor, ME) and Lepr-cre; tdTomato reporter mice were used. The average mouse weight was 25 grams and mice were housed in groups of four to five, and kept on a 12-hr light-dark cycle with lights off at 1800 hr. All animals had ad libitum access to chow (PMI LabDiet 5001) and water. Fracture surgeries were performed as previously described (Zeng Y, et al. (2020) Adv Mater. 32:e1906022). Animals were anesthetized by isoflurane and injected with 1 mg/kg buprenorphine SR-LAB (ZooPharm, Laramie, WY). Each mouse was then placed in a supine position with the right tibia disinfected. After skin incision and reflection, proximal to the right knee, a 0.7-mm pin was inserted from the tibial plateau through the medullary cavity to stabilize the tibia, and a cut was made at the tibial midshaft to induce a transverse fracture. Bupivacaine (0.5%; Hospira, Lake Forest, IL) at ˜1 mg/kg body weight was applied at the surgical site following wound closure using 2 reflex clips (5 mm). For animals treated with control and adenosine-loaded macroporous hydrogels, macroporous hydrogels measuring approximately 5 mm (length)×3 mm (width)×1 mm (thick) containing either 1.05±0.1 mg adenosine (ADO) or no adenosine (CTL) were implanted adjacent to the fractures immediately. […] The animals were treated with the macroporous hydrogels with or without adenosine immediately following the fracture. […]

[2] = system: bone marrow mesenchymal stromal cells (BM-MSCs); test: RT-qPCR of osteogenic genes in bone marrow MSCs; type: cell-based, mouse; settings: adenosine 30 μg/mL, 14 days, absence of osteogenic induction medium
Description: MSCs were isolated as previously described with some modifications (Shih Y B, et al. (2019) Sci Adv. 5:eaax1387). Briefly, the femurs, tibiae, vertebrae of mice were harvested, crushed with pestle and mortar in harvest buffer (1% v/v FBS in PBS) to release bone marrow (BM) tissue, filtered through a 40-μm cell strainer, and centrifuged at 200 rcf. Cells were seeded in a 24-well plate at a cell density of 1 million cells/cm^2 in growth media (GM) containing α-MEM, FBS (10% v/v, ThermoFisher, Cat #16000044), penicillin/streptomycin (10000 U/mL; 1% v/v) and cultured in humidified incubator (37° C., 5% CO2). The medium was replaced after 3 days and further cultured for 6 days before passage. For passaging, cells were incubated in 0.25% trypsin-EDTA for 2 min at 37° C., detached with a cell scraper, neutralized by using GM, centrifuged, and sub-cultured at a density of 8000 cells/cm^2. All experiments were performed between 1-2 passage. Osteogenic medium (OM) was prepared by supplementing GM with 10 mM β-glycerophosphate (MilliporeSigma, Cat #G9422), 50 μM ascorbic acid-2-phosphate (MilliporeSigma, Cat #A8960), and 100 nM dexamethasone (MilliporeSigma, Cat #D4902).
Cells, DRG, or bone/marrow tissues were analyzed for gene expression by quantitative real-time polymerase chain reaction (RT-qPCR). Nucleic acids were extracted with TRIzol, phase-separated with chloroform, and precipitated in isopropanol. […] Quantitative PCR was performed with iTaq Universal SYBR green reagent (Bio-Rad, Cat #1725124) with denaturation at 95° C. for 30 sec for one cycle, and amplification (denaturation+annealing/extension) at 95° C. for 5 sec and 60° C. for 30 sec for 40 cycles on a polymerase chain reaction (PCR) cycler (Bio-Rad, CFX96 Touch). […]
The expression level of each target gene was normalized to the housekeeping gene and to their respective controls and presented as fold change expressed as 2^−ΔΔCt values. […]

[3] = system: mouse model of stabilized unilateral tibial fracture; test: Open field activity after tibial fracture; type: in vivo
Description: as §1, §2

[4] = 7 dpf, sum over 60 min, ratio post-/pre-fracture

Nc1ncnc2c1ncn2[C@@H]1O[C@H](CO)[C@@H](O)[C@H]1O [adenosine]
degree of decrease in weight bearing vs untreated group ([1]; 2 dpf and 4 dpf): less | percent change in weight bearing from baseline ([1]; 2 dpf and 4 dpf): significant decreases | percent change in weight bearing from baseline ([1]; 8 dpf): returned to baseline | ipsilateral weight bearing vs pre-fracture baseline ([1]; 2 days post-fracture): significantly decreased | ipsilateral weight bearing vs pre-fracture baseline ([1]; by 8 days post-fracture): returned back to the baseline | effect size of treatment on weight bearing ([1]; each timepoint, effect size r): large effect size | ipsilateral hindlimb weight bearing vs control-treated limbs ([1]; hydrogel with 1.05±0.1 mg adenosine implanted next to fracture, all post-fracture timepoints (2, 4, 8 dpf)): significantly higher | Ibsp gene expression [2]: upregulated | Runx2 gene expression [2]: upregulated | Sp7 gene expression [2]: upregulated | effect size of treatment on open field parameters ([3]; 7 dpf, effect size r and Cohen's d, all measured parameters): large effect sizes | ambulatory activity counts vs control [3, 4]: significantly higher | ambulatory time vs control [3, 4]: significantly higher | rest time vs control [3, 4]: lower | total distance vs control [3, 4]: significantly higher | vertical activity counts vs control [3, 4]: significantly higher | vertical movement time vs control [3, 4]: significantly higher | open field activity vs control at 5-min intervals (vertical, ambulatory, distance; lower rest time) ([3]; 7 days post-fracture, most of the 5-min intervals, ratio post-/pre-fracture): higher levels of activity
